For one test, the target named is eEF2 kinase (Homo sapiens, UniProt O00418). In words: eEF2 kinase activity assay with purified eEF2 (33P-ATP, SDS-PAGE, autoradiography). The test is classed as biochemical. Conditions: purified eEF2, FIG. 1.
A further test has as its system glioma cell lines. Conditions: by inhibiting eEF2-K; Parmer et al, 1997; cited from earlier work.
The target of the next test is eEF2K (Homo sapiens, UniProt O00418). Conditions: known selenazine inhibitors; cited from earlier work.
Sequence of eEF2K (O00418 whole entry): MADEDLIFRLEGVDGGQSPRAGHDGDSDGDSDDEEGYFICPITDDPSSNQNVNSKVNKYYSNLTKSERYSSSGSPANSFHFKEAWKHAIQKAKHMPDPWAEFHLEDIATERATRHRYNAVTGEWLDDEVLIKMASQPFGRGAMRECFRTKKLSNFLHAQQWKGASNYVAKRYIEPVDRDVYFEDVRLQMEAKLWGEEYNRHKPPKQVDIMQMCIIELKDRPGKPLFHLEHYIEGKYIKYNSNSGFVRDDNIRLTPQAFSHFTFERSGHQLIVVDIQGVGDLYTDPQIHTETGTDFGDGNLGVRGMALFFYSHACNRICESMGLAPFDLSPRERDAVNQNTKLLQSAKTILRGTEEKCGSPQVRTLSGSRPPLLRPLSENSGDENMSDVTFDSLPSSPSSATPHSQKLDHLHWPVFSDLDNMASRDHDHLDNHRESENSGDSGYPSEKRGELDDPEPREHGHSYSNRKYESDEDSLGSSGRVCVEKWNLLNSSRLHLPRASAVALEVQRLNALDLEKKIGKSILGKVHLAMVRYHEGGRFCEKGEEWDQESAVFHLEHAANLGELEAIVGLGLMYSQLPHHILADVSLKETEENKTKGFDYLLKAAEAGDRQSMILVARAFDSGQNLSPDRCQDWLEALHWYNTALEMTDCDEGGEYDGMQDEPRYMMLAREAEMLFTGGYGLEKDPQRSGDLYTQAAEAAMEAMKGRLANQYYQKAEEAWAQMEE

Procedure for eEF2 kinase: Recombinant eEF2 kinase (0.5 μg) was incubated with purified rabbit reticulocyte eEF2 (0.5 μg) in a reaction mixture consisting of 50 mM Hepes-KOH pH 6.6, 10 mM magnesium acetate, 5 mM DTT, 100 μM CaCl2, 0.5 μg calmodulin, 50 μM ATP, and 0.2 μCi [γ-^33P]-ATP (3000 Ci/mmol). The reactions were run at 30° C. for 15 minutes, and were terminated by incubation in an ice/water bath and addition of Laemmli sample buffer. Samples were analyzed by SDS-PAGE and autoradiography.

Regarding `CCCCCCCCCCCCC/C=C/[C@@H](O)[C@@H](N)COP(=O)(O)O` [sphingosine-1-phosphate], at eEF2 kinase, the “inhibition of eEF2 kinase in vitro” value is on record as “inhibit eEF2 kinase in vitro”.

On to `CC(=O)c1c(O)c(C)c(O)c(Cc2c(O)c3c(c(C(=O)/C=C/c4ccccc4)c2O)OC(C)(C)C=C3)c1O` [Rottlerin], for which, in the test on glioma cell lines, the “inhibition of growth of glioma cell lines” value is listed as “inhibit growth of glioma cell lines”.

For the compound `Cc1ccc(C2=NC(C)(O)CC(C(C)C)[Se]2)cc1` (centres unmarked) [TS4], the “inhibition of eEF2K phosphorylative activity” value on eEF2K was “known to inhibit eEF2K phosphorylative activity”.

As to `CCC1(O)CC[Se]C(c2ccc(C)cc2)=N1` (centres unmarked) [TS2], the “inhibition of eEF2K phosphorylative activity” value at eEF2K is given as “known to inhibit eEF2K phosphorylative activity”.

Regarding `CCCCCC1=NC(O)(CC)CC[Se]1` (centres unmarked) [PS2], at eEF2K, the “inhibition of eEF2K phosphorylative activity” value was “known to inhibit eEF2K phosphorylative activity”.

(Values after patent US20120178769A1, “NOVEL COMPOUNDS FOR INHIBITING EEF-2 KINASE ACTIVITY” (The University of Medicine and Dentistry, priority 2009, published 2012).)
